US20230348447A1, “OXAZOLIDINONE COMPOUNDS, LIPOSOME COMPOSITIONS COMPRISING OXAZOLIDINONE COMPOUNDS AND METHOD OF USE THEREOF” (priority 2020, published 2023)
Converted amounts (≈) assume the structure as drawn. Read-outs that look alike come from different tables or passages of the source.

Assays:
[1] = tested on: M.tb Erdman; experiment: Broth microdilution MIC with Alamar blue endpoint (MABA) / OD600; type: cell-based, Mycobacterium tuberculosis
[2] = tested on: MRSA ATCC 43300; experiment: MIC against methicillin resistant Staphylococcus aureus (MRSA); details: read-out: MRSA MIC, ATCC 43300
[3] = tested on: human hepatocyte/liver (HepG2; ATCC #HB8065) cells; experiment: In vitro cytotoxicity (PrestoBlue cell viability), HepG2; type: cell-based
[4] = tested on: M. Tuberculosis Erdman or H37Rv vs VERO or HepG2 cells; experiment: Selectivity Index (mammalian cell IC50 / bacterial MIC); design: species or system Mycobacterium tuberculosis
[5] = tested on: MRSA ATCC BAA-1556; experiment: MIC against methicillin resistant Staphylococcus aureus (MRSA)
[6] = tested on: MRSA 880 NR-49120; experiment: as above; details: read-out: MRSA MIC, 880 NR-49120
[7] = tested on: African green monkey kidney (Vero; ATCC # CCL81) cells; experiment: In vitro cytotoxicity (PrestoBlue cell viability), Vero; type: cell-based
[8] = tested on: M.tb H37Rv; experiment: Broth microdilution MIC with Alamar blue endpoint (MABA) / OD600; type: cell-based, Mycobacterium tuberculosis
[9] = tested on: M. abscessus; experiment: MIC in nontuberculosis mycobacteria (microbroth dilution, resazurin); type: cell-based, Mycobacterium abscessus; details: Mycobacteroides abscessus, read-out: MIC
[10] = tested on: mitochondrial protein synthesis (COX-1/SDH-A ratio) in H9C2 rat heart myoblast cells; experiment: Mitochondrial protein synthesis inhibition (MitoBiogenesis in-cell ELISA, COX-1/SDH-A); type: cell-based; details: 120 h, five days, read-out: MPS IC50
[11] = Aqueous solubility (visually clear solutions); type: physicochemical; details: aqueous, 1 N HCl and/or water added
Method: Working stocks of the compounds were prepared as follows: to an aliquot of a compound (free base) in a powder form 1-1.5 equivalents of HCl in the form of 1 N aqueous solution was added, and the mixture was vortexed until homogeneity. To the resulting cake or syrup, water was added typically to the final 10 mg/ml, and complete dissolution was observed. In some instances, 0.95 equivalents of HCl were added to the free base form of the drug, and 20 mg/ml stock solution was prepared.
Aqueous solubility of the compounds of the present disclosure is illustrated by the following observations of obtaining visually clear solutions: […]

[12] = Liposome loading / encapsulation efficiency (General protocol); details: for maximum drug load: HSPC:Chol 3:2, 0.5 mol% PEG-DSG (Example 14)
[13] = In vitro burst release of liposomal drug in plasma, human; details: mouse or human plasma, 20 min 37° C., 0.5 M AS liposomes, 40-65 mol% Chol (FIG. 5A, 5B)
Method: The plasma was thawed, if necessary, adjusted to pH 7.4 with 1 N HCl, and sequentially filtered through glass microfiber filters (GF/C), 1 µm polyethersulfone (PES), and 0.22 µm PES filters. Plasma (80 µl) was mixed with liposomal drug formulations (20 µl) in a 0.5 ml Eppendorf tube. The mixture was subsequently incubated for 20 min at 37° C. and then put into chilled water.
Incubation time was 20 min.

[14] = tested on: M.avium; experiment: MIC in nontuberculosis mycobacteria (microbroth dilution, resazurin); type: cell-based, Mycobacterium avium; details: Mycobacterium avium, read-out: MIC
[15] = tested on: M. chelonae; experiment: as above; type: cell-based, Mycobacterium chelonae; details: Mycobacteroides chelonae, read-out: MIC
[16] = tested on: M. kansasii; experiment: as above; type: cell-based; details: Mycobacterium kansasii, read-out: MIC
[17] = tested on: M. massiliense; experiment: as above; type: cell-based, Mycobacterium massiliense
[18] = tested on: MRSA strain MW-2 (USA 400); experiment: Rabbit left-sided aortic valve endocarditis model of MRSA; type: in vivo, Staphylococcus aureus (in New Zealand white rabbits); details: for Kidneys, MRSA count / Liver, MRSA count / Lungs, MRSA count / Spleen, MRSA count / Vegetations, MRSA count: rabbits, DAP 2 mg/kg daily for four days alone
[19] = read-out: MRSA MIC, ATCC BAA-1556
[20] = Mycobacterium tuberculosis, ERDMAN; read-out: Mycobacterium tuberculosis MIC, Erdman
[21] = Mycobacterium tuberculosis; M. tuberculosis Erdman / H37Rv, strains not separated; read-out: MIC
[22] = Homo sapiens, HepG2, 72 h; read-out: Cell viability IC50, HepG2
[23] = Chlorocebus sabaeus, Vero, 72 h; read-out: Cell viability IC50, VERO
[24] = Mycobacterium tuberculosis, H37RV; as determined in Example 2; read-out: MIC (H37Rv)
[25] = Mycobacterium tuberculosis, H37RV; read-out: Mycobacterium tuberculosis MIC, H37Rv

## CN(C)CCCn1nnc(-c2ccc(-c3ccc(N4C[C@H](CN)OC4=O)cc3F)cn2)n1 [AKG-30]
[1]; Mycobacterium tuberculosis, ERDMAN, read-out: Mycobacterium tuberculosis MIC, Erdman
  MIC: 0.125 µg/mL (≈ 0.284 µM)
[2]
  MIC: > 50 µg/mL
[3]; Homo sapiens, HepG2, 72 h, read-out: Cell viability IC50, HepG2
  IC50: 18.9 µg/mL (≈ 42.9 µM)
[4]
  Selectivity Index (SI) Erd/HepG2: 151.2
  Selectivity Index (SI) Erd/VERO: 884.0
[5]; read-out: MRSA MIC
  MIC: > 50 µg/mL
[5]; [19]
  MIC: > 50 µg/mL
[6]
  MIC: > 50 µg/mL
[7]; Chlorocebus sabaeus, Vero, 72 h, read-out: Cell viability IC50, VERO
  IC50: 110 µg/mL (≈ 251 µM)
[8]; Mycobacterium tuberculosis, H37RV, read-out: Mycobacterium tuberculosis MIC, H37Rv
  MIC: 0.125 µg/mL (≈ 0.284 µM)

## CC(=O)NC[C@H]1CN(c2ccc(-c3ccc(-c4nnn(CCN(C)C)n4)nc3)c(F)c2)C(=O)O1 [AKG-38]
[9]; M. abscessus sbsp. abscessus strain 21
  MIC: 0.06 µg/mL (≈ 0.128 µM)
[9]; M. abscessus sbsp. abscessus strain 1513
  MIC: 32 µg/mL (≈ 68.3 µM)
[9]; M. abscessus sbsp. abscessus strain 1948
  MIC: 0.06 µg/mL (≈ 0.128 µM)
[10]
  IC50: 0.041 µg/mL (≈ 0.0875 µM)
[1]; [20]
  MIC: 0.06 µg/mL (≈ 0.128 µM)
[1]; [21]
  MIC: 0.06 µg/mL (≈ 0.128 µM)
[11]
  Concentration % (w/w) of free base (visually clear solution): 7.1 % (w/w)
[12]; 0.5 M AS
  maximum drug load: 818-842 g/mol PhL
[12]; 1 N TEA-SOS
  maximum drug load: 989 g/mol PhL
[12]; 30 mol% cholesterol, 1 N TEA-SOS, AKG-28: 5 mol% PEG-DSG or PEG-DSPE, AKG-38: 5 mol% PEG-DSPE
  liposome aggregation during drug loading: irreversibly aggregated during the drug loading
[12]; 30 mol% cholesterol, 5 mol % PEG-DSG, 1 N TEA-SOS
  drug load: 462.4 g/mol PhL
[13]
  burst release phenomenon in plasma in vitro: observed in both human and mouse plasma for the formulations with cholesterol content of 40 mol.% and 45 mol.%, but not at cholesterol content of 50 mol.% or more
[2]
  MIC: 1.85 µg/mL (≈ 3.95 µM)
[3]; [22]
  IC50: 97 µg/mL (≈ 207 µM)
[5]; [19]
  MIC: 1.85 µg/mL (≈ 3.95 µM)
[14]; M. avium sbsp. avium strain 2285 R
  MIC: 0.06 µg/mL (≈ 0.128 µM)
[14]; M. avium sbsp. avium strain 2285 S
  MIC: 0.125 µg/mL (≈ 0.267 µM)
[14]; M. avium sbsp. avium strain 3993
  MIC: 0.125 µg/mL (≈ 0.267 µM)
[15]; M. chelonae strain 49
  MIC: 0.06 µg/mL (≈ 0.128 µM)
[15]; M. chelonae strain 69
  MIC: 0.5 µg/mL (≈ 1.07 µM)
[15]; M. chelonae strain 35752
  MIC: 0.06 µg/mL (≈ 0.128 µM)
[16]; M. kansasii strain 662
  MIC: > 32 µg/mL
[16]; M. kansasii strain 732
  MIC: 0.03 µg/mL (≈ 0.064 µM)
[16]; M. kansasii strain 824
  MIC: 0.06 µg/mL (≈ 0.128 µM)
[16]; M. kansasii strain MK13D6
  MIC: 0.03 µg/mL (≈ 0.064 µM)
[16]; M. kansasii strain WT171017
  MIC: 0.03 µg/mL (≈ 0.064 µM)
[6]
  MIC: 0.617 µg/mL (≈ 1.32 µM)
[7]; [23]
  IC50: 395 µg/mL (≈ 843 µM)
[8]; [24]
  MIC: 0.06 µg/mL (≈ 0.128 µM)
[8]; [25]
  MIC: 0.06 µg/mL (≈ 0.128 µM)
[17]; M. massiliense strain M154
  MIC: 0.25 µg/mL (≈ 0.534 µM)
[17]; Mycobacteroides abscessus, CIP108297, M. massiliense strain CIP 108297, read-out: MIC
  MIC: 0.5 µg/mL (≈ 1.07 µM)
[17]; Mycobacteroides abscessus, M. massiliense strain CRM0019, read-out: MIC
  MIC: 0.25 µg/mL (≈ 0.534 µM)

## CCN(CC)CCn1nnc(-c2ccc(-c3ccc(N4C[C@H](CNC(C)=O)OC4=O)cc3F)cn2)n1 [AKG-39]
[10]
  IC50: 0.06 µg/mL (≈ 0.121 µM)
[1]; [20]
  MIC: 0.5 µg/mL (≈ 1.01 µM)
[1]; [21]
  MIC: 0.5 µg/mL (≈ 1.01 µM)
[2]
  MIC: 1.85 µg/mL (≈ 3.73 µM)
[3]; [22]
  IC50: 70 µg/mL (≈ 141 µM)
[4]
  Selectivity Index (SI) Erd/HepG2: 140.0
  Selectivity Index (SI) Erd/VERO: 402.0
[5]; [19]
  MIC: 1.85 µg/mL (≈ 3.73 µM)
[6]
  MIC: 1.85 µg/mL (≈ 3.73 µM)
[7]; [23]
  IC50: 201 µg/mL (≈ 405 µM)
[8]; [24]
  MIC: 0.5 µg/mL (≈ 1.01 µM)
[8]; [25]
  MIC: 0.5 µg/mL (≈ 1.01 µM)

## CCN(CC)CCCn1nnc(-c2ccc(-c3ccc(N4C[C@H](CNC(C)=O)OC4=O)cc3F)cn2)n1 [AKG-40]
[10]
  IC50: 0.064 µg/mL (≈ 0.125 µM)
[1]
  Mycobacterium tuberculosis MIC, Erdman: 1 to 2 µg/mL
[1]; [20]
  MIC: 1 µg/mL (≈ 1.96 µM)
[2]
  MIC: 5.55 µg/mL (≈ 10.9 µM)
[3]; [22]
  IC50: 113 µg/mL (≈ 221 µM)
[4]
  Selectivity Index (SI) Erd/HepG2: 113.0
  Selectivity Index (SI) Erd/VERO: >250.0
[5]; [19]
  MIC: 1.85 µg/mL (≈ 3.62 µM)
[6]
  MIC: 1.85 µg/mL (≈ 3.62 µM)
[7]; [23]
  IC50: > 250 µg/mL
[8]
  Mycobacterium tuberculosis MIC, H37Rv: 0.5 µg/mL
[8]; [24]
  MIC: 0.5 µg/mL (≈ 0.979 µM)
[8]; [25]
  MIC: 0.5 µg/mL (≈ 0.979 µM)

## CCCCCCCCCC(=O)N[C@@H](Cc1c[nH]c2ccccc12)C(=O)N[C@H](CC(N)=O)C(=O)N[C@@H](CC(=O)O)C(=O)N[C@@H]1C(=O)NCC(=O)N[C@@H](CCCN)C(=O)N[C@@H](CC(=O)O)C(=O)N[C@H](C)C(=O)N[C@@H](CC(=O)O)C(=O)NCC(=O)N[C@H](CO)C(=O)N[C@@H]([C@H](C)CC(=O)O)C(=O)N[C@@H](CC(=O)c2ccccc2N)C(=O)O[C@@H]1C [Daptomycin]
[18]; DAP 2 mg/kg daily x4 alone or plus a single dose of Ls-AKG38 40 mg/kg
  efficacy on day 6 post inoculation: no significant efficacy
[18]; (relapse)
  Kidneys, MRSA count: 8.11 ± 0.49 log10 cfu/gm of tissue
  Liver, MRSA count: 7.65 ± 0.26 log10 cfu/gm of tissue
  Lungs, MRSA count: 8.00 ± 0.66 log10 cfu/gm of tissue
  Spleen, MRSA count: 7.91 ± 0.54 log10 cfu/gm of tissue
  Vegetations, MRSA count: 9.18 ± 0.22 log10 cfu/gm of tissue
[18]; day 6
  Kidneys, MRSA count: 6.90 ± 0.61 log10 cfu/gm of tissue
  Liver, MRSA count: 6.77 ± 0.90 log10 cfu/gm of tissue
  Lungs, MRSA count: 6.37 ± 0.64 log10 cfu/gm of tissue
  Spleen, MRSA count: 7.43 ± 0.38 log10 cfu/gm of tissue
  Vegetations, MRSA count: 8.13 ± 0.17 log10 cfu/gm of tissue
